Laboratory results: US8334002B2, “Cinnamaldehyde—allicin compositions and their method of use” (Valent BioSciences Corporation, priority 2008, dated 2012)

Legend:
[1] = system: Root Knot Nematodes (Meloidogyne incognita); test: Greenhouse pot test, root galling after inoculation with second stage juveniles; type: in vivo; details: 300 ppm total a.i.
Description: Procedure for Greenhouse pot Tests:
2″×2″ plastic pots are filled with 140 to 150 g of plant growth medium that is made up of non-pasteurized sand and soil at 2:1 ratio. Three cucumber seeds (variety Straight Eight; in the case of tomatoes, variety Rutgers) are planted at uniform depth and watered. Upon emergence, two uniform seedlings are allowed to grow in each pot by removing the third seedling. Seedlings are selected when the first true leaf is emerged, generally 5 to 7 days after planting. Each pot is treated with test material diluted in 25 mL of water that is just sufficient to wet the soil but not drip. Except for untreated control, all test pots are inoculated with about 800 second stage juveniles of Root Knot Nematodes (Meloidogyne incognita). Plants are watered as needed. Twelve to fourteen days after the pots are inoculated, the plants are carefully removed from the pots, the roots are gently washed free of soil and placed on paper towels, and data on fresh weight of shoots, roots, number of galls/treatment and/or per gram of root are taken.

nematodes = details: at concentrations of 300 ppm; cited from earlier work
[2] = cucumber, preferred formulations of Table 2

| SMILES | % gall reduction in relation to M.i Control [1, 2] | Average gall rating (0-9) [1, 2] | % gall reduction in relation to M.i Control ([1]; prototype formulations of Table 1) | Average gall rating (0-9) ([1]; prototype formulations of Table 1, 0 = no galls, 9 = heavy galling) | nematicidal activity (nematodes) |
| --- | --- | --- | --- | --- | --- |
| C=CCS[S+]([O-])CC=C (stereo not shown) [Allicin, allicin] | 41.7% | 5.25 | 72.7% | 2.25 |  |
| O=CC=Cc1ccccc1 [Cinnamaldehyde, cinnamaldehyde] | 19.4% | 7.25 |  |  | only marginal |
